The text below walks through data of patent publication US20240391948A1, “NOVEL COMPOUND THAT INHIBITS TNF-ALPHA GENERATION AND INFLAMMASOME ACTIVITY AND PREPARATION METHOD THEREFOR” (SHAPERON INC., priority 2021, published 2024).

The structures appear in SMILES notation. Some results are limits rather than exact numbers.

What is called IC50 is the concentration that gives 50% inhibition. The term inhibition denotes how much of the control response was suppressed.

Format in all cases: cell-based
In assay [1] the test system is U937 cells (human monocytic cell line). Briefly: Pam2CSK4-induced TNF-α secretion inhibition in PMA-differentiated U937 cells. The following applies: U-937, U937 cells differentiated with PMA, read-out: TNF-α production inhibition grade (IC50). Put shortly: (§1)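 Inhibition is given as IC50 (μM) in A-D bands, using distinct thresholds for TNF-α and for IL-1β. Secretion followed Pam2CSK4 stimulation (TNF-α) or BzATP stimulation (IL-1β) of compound-pretreated, PMA-differentiated U937 macrophages.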

The test system of assay [2] is J774A.1 (Mouse BALB/c monocyte macrophage cell line) cells. Briefly: LPS+ATP-induced IL-1β secretion inhibition in J774A.1 cells. The following applies: J774.A1, 1 μM compound, graded compared to taurodeoxycholic acid (positive control), read-out: IL-1β production inhibition grade. As for the experimental part: (§2) To evaluate anti-inflammatory efficacy, an inflammatory response was induced in J774A.1 (Mouse BALB/c monocyte macrophage cell line) cells derived from mouse macrophages by LPS (lipopolysaccharide) and LPS+ATP (adenosine triphosphate), and the efficacy of taurine-bile acid derivatives to inhibit the production of inflammatory cytokines (IL-1β, TNF-α) was measured. After treating J774A.1 cells with 1 μM of a taurine-bile acid derivative, the degree to which the secretion of TNF-α among cytokines was suppressed was measured in the experimental group in which an inflammatory response was induced by LPS, and the extent to which IL-1β secretion among cytokines was suppressed was measured in the experimental group in which an inflammatory response was induced with LPS+ATP. The ability of taurine-bile acid derivatives to inhibit cytokine production was graded compared to taurodeoxycholic acid, a positive control. The grading criteria are A: over 100%, B: over 50% and under 100%, C: between 20% and under 50%, and D: under 20%.

The test system is the same in assay [3]. In words: LPS-induced TNF-α secretion inhibition in J774A.1 cells. The following applies: J774.A1, 1 μM compound, graded compared to taurodeoxycholic acid (positive control), read-out: TNF-α production inhibition grade. On the procedure: as §2
For assay [4], the system named is U937 cells (human monocytic cell line). Briefly: BzATP-induced IL-1β secretion inhibition in PMA-differentiated U937 cells. Conditions: U-937, U937 cells differentiated with PMA, read-out: IL-1β production inhibition grade (IC50). An outline of the steps:
as §1

On to `CC(C)C[C@@H](CS(=O)(=O)O)NC(=O)CC[C@@H](C)[C@H]1CC[C@H]2[C@@H]3CC[C@@H]4CC(=O)CC[C@]4(C)[C@H]3CC[C@]12C` [NC30030], for which the 50% inhibitory concentration (IC50) was 500 to 1000 nM in assay [1] and at least 200 nM in assay [4]. Further, the inhibition at 1 µM was 20 to 50% in assay [2] and under 20% in assay [3].
The matching figures for `C[C@H](CCC(=O)N(C)CCS(=O)(=O)O)[C@H]1CC[C@H]2[C@@H]3CC[C@@H]4C[C@H](O)CC[C@]4(C)[C@H]3CC[C@]12C` [NC10055]: 1000 to 2000 nM, under 50 nM, 50 to 100% and under 20%.
For `CC[C@H]1[C@@H](O)[C@@H]2[C@H](C[C@H](O)[C@]3(C)[C@@H]([C@H](C)CCC(=O)NC(C)(C)CS(=O)(=O)O)CC[C@@H]23)[C@@]2(C)CC[C@@H](O)C[C@@H]12` [NC50013], in that order: 1000 to 2000 nM, under 50 nM, over 100% and under 20%.
As for `C[C@H](CCC(=O)N[C@H]1CCCC[C@H]1S(=O)(=O)O)[C@H]1CC[C@H]2[C@@H]3CC[C@@H]4CC(=O)CC[C@]4(C)[C@H]3CC[C@]12C` [NC30027], the IC50 is 500 to 1000 nM in assay [1] and under 50 nM in assay [4]. The inhibition at 1 µM in assay [2] and in assay [3] was over 100% in each case.
Take `CC(C)N(CCS(=O)(=O)O)C(=O)CC[C@@H](C)[C@H]1CC[C@H]2[C@@H]3CC[C@@H]4C[C@H](O)CC[C@]4(C)[C@H]3C[C@H](O)[C@]12C` [NC10024]: the figures for the IC50 in assay [1] and in assay [4] were 1000 to 2000 nM and 50 to 100 nM, respectively. The inhibition at 1 µM was over 100% in assay [2] and under 20% in assay [3].
For `C[C@H](CCC(=O)NCCC(=O)O)[C@H]1CC[C@H]2[C@@H]3[C@H](O)C[C@@H]4C[C@H](O)CC[C@]4(C)[C@H]3C[C@H](O)[C@]12C` [NC20002], in that order: at least 2000 nM, 100 to 200 nM, 50 to 100% and 50 to 100%.
The matching figures for `C[C@H](CCC(=O)N1CCC[C@H](S(=O)(=O)O)C1)[C@H]1CC[C@H]2[C@@H]3CC[C@@H]4C[C@H](O)CC[C@]4(C)[C@H]3CC[C@]12C` [NC10060]: at least 2000 nM, at least 200 nM, 50 to 100% and under 20%.
Regarding `CC(C)C[C@@H](CS(=O)(=O)O)NC(=O)CC[C@@H](C)[C@H]1CC[C@H]2[C@@H]3[C@H](O)C[C@@H]4C[C@H](O)CC[C@]4(C)[C@H]3C[C@H](O)[C@]12C` [NC20030], the concentration for half-maximal inhibition (IC50) was under 500 nM in assay [1] and at least 200 nM in assay [4]. Further, the inhibition at 1 µM in assay [2] and in assay [3] was under 20% each time.
Turning to `CCN(CC)CCNC(=O)CC[C@@H](C)[C@H]1CC[C@H]2[C@@H]3CC[C@@H]4C[C@H](O)CC[C@]4(C)[C@H]3C[C@H](O)[C@]12C` [NC10017], the results for the IC50 in assay [1] and in assay [4] were 500 to 1000 nM and under 50 nM, respectively. In addition, the inhibition at 1 µM in assay [2] and in assay [3] was over 100% throughout.
On to `CC[C@H]1[C@@H](O)[C@@H]2[C@H](CC[C@]3(C)[C@@H]([C@H](C)CCC(=O)N(CCN(C)C)CCS(=O)(=O)O)CC[C@@H]23)[C@@]2(C)CC[C@@H](O)C[C@@H]12` [NC40035], for which the concentration for half-maximal inhibition (IC50) was under 500 nM in assay [1] and 50 to 100 nM in assay [4]. Besides, the values for the inhibition at 1 µM in assay [2] and in assay [3] were over 100% and under 20%, respectively.
Regarding `CC(C)[C@@H](CS(=O)(=O)O)NC(=O)CC[C@@H](C)[C@H]1CC[C@H]2[C@@H]3CC[C@@H]4C[C@H](O)CC[C@]4(C)[C@H]3C[C@H](O)[C@]12C` [NC10032], the half-maximal inhibitory concentration (IC50) in assay [1] is at least 2000 nM; in assay [4], 50 to 100 nM. In addition, the figures for the inhibition at 1 µM in assay [2] and in assay [3] were 50 to 100% and under 20%, respectively.
For `C[C@H](CCC(=O)NC(C)(C)CS(=O)(=O)O)[C@H]1CC[C@H]2[C@@H]3CC[C@@H]4C[C@H](O)CC[C@]4(C)[C@H]3CC[C@]12C` [NC10064], the IC50 is under 500 nM in assay [1] and under 50 nM in assay [4]. The inhibition at 1 µM in assay [2] and in assay [3] was under 20% throughout.
Consider `C[C@H](CCC(=O)N(CCN(C)C)CCS(=O)(=O)O)[C@H]1CC[C@H]2[C@@H]3CC[C@@H]4C[C@H](O)CC[C@]4(C)[C@H]3C[C@H](O)[C@]12C` [NC10050], for which the figures for the IC50 in assay [1] and in assay [4] were under 500 nM and 50 to 100 nM, respectively. Further, the results for the inhibition at 1 µM in assay [2] and in assay [3] were over 100% and under 20%, respectively.
For `C[C@H](CCC(=O)N1CCN(S(=O)(=O)O)CC1)[C@H]1CC[C@H]2[C@@H]3CC[C@@H]4C[C@H](O)CC[C@]4(C)[C@H]3C[C@H](O)[C@]12C` [NC10009], in that order: under 500 nM, under 50 nM, over 100% and over 100%.
With `C[C@H](CCC(=O)N1CCC(S(=O)(=O)O)CC1)[C@H]1CC[C@H]2[C@@H]3CC[C@@H]4CC(=O)CC[C@]4(C)[C@H]3CC[C@]12C` [NC30011], the half-maximal inhibitory concentration (IC50) was 500 to 1000 nM in assay [1] and at least 200 nM in assay [4]. The inhibition at 1 µM in assay [2] and in assay [3] was under 20% each time.
On to `C[C@H](CCC(=O)N(CCN(C)C)CCS(=O)(=O)O)[C@H]1CC[C@H]2[C@@H]3CC[C@@H]4C[C@H](O)CC[C@]4(C)[C@H]3CC[C@]12C` [NC10091], for which the IC50 is 500 to 1000 nM in assay [1] and under 50 nM in assay [4]. Also, the inhibition at 1 µM in assay [2] and in assay [3] was over 100% throughout.
On to `CC[C@H]1[C@@H](O)[C@@H]2[C@H](CC[C@]3(C)[C@@H]([C@H](C)CCC(=O)N[C@H](CC(C)C)CS(=O)(=O)O)CC[C@@H]23)[C@@]2(C)CC[C@@H](O)C[C@@H]12` [NC40031], for which the figures for the concentration for half-maximal inhibition (IC50) in assay [1] and in assay [4] were 1000 to 2000 nM and at least 200 nM, respectively. The inhibition at 1 µM in assay [2] and in assay [3] was under 20% each time.
For `C[C@H](CCC(=O)N1CC[C@H](S(=O)(=O)O)C1)[C@H]1CC[C@H]2[C@@H]3[C@H](O)C[C@@H]4C[C@H](O)CC[C@]4(C)[C@H]3C[C@H](O)[C@]12C` [NC20033], the figures for the IC50 in assay [1] and in assay [4] were 1000 to 2000 nM and 50 to 100 nM, respectively. Also, the inhibition at 1 µM in assay [2] is 20 to 50%; in assay [3], under 20%.
For `C[C@H](CCC(=O)N(CCS(=O)(=O)O)c1ccccc1)[C@H]1CC[C@H]2[C@@H]3[C@H](O)C[C@@H]4C[C@H](O)CC[C@]4(C)[C@H]3C[C@H](O)[C@]12C` [NC20037], in that order: under 500 nM, under 50 nM, 50 to 100% and under 20%.
For `C[C@H](CCC(=O)N(CCN(C)C)CCS(=O)(=O)O)[C@H]1CC[C@H]2[C@@H]3CC[C@@H]4CC(=O)CC[C@]4(C)[C@H]3CC[C@]12C` [NC30035], in that order: 500 to 1000 nM, under 50 nM, over 100% and over 100%.
As for `C[C@H](CCC(=O)N(CCS(=O)(=O)O)c1ccccc1)[C@H]1CC[C@H]2[C@@H]3CC[C@@H]4CC(=O)CC[C@]4(C)[C@H]3CC[C@]12C` [NC30037], the half-inhibitory concentration (IC50) was at least 2000 nM in assay [1] and under 50 nM in assay [4]. Besides, the values for the inhibition at 1 µM in assay [2] and in assay [3] were over 100% and 20 to 50%, respectively.
With `C[C@H](CCC(=O)N(CCO)CCS(=O)(=O)O)[C@H]1CC[C@H]2[C@@H]3[C@H](O)C[C@@H]4C[C@H](O)CC[C@]4(C)[C@H]3C[C@H](O)[C@]12C` [NC20006], the IC50 in assay [1] is 1000 to 2000 nM; in assay [4] it was under 50 nM. For the same molecule, the inhibition at 1 µM is over 100% in assay [2] and under 20% in assay [3].
`CC(C)C[C@H](CS(=O)(=O)O)NC(=O)CC[C@@H](C)[C@H]1CC[C@H]2[C@@H]3CC[C@@H]4CC(=O)CC[C@]4(C)[C@H]3CC[C@]12C` [NC30031]: the values for the concentration for half-maximal inhibition (IC50) in assay [1] and in assay [4] were 500 to 1000 nM and at least 200 nM, respectively. The inhibition at 1 µM in assay [2] was 20 to 50%; in assay [3] it was under 20%.
The matching figures for `C[C@H](CCC(=O)N(CCS(=O)(=O)O)C1CCOCC1)[C@H]1CC[C@H]2[C@@H]3CC[C@@H]4CC(=O)CC[C@]4(C)[C@H]3CC[C@]12C` [NC30008]: 500 to 1000 nM, at least 200 nM, 50 to 100% and under 20%.
